Reference: patent US12351565B2, “Aromatic compound and preparation method therefor and use thereof” (SHANGHAI JIANHE PHARMACEUTICAL & TECHNOLOGY CO. LTD., priority 2018, dated 2025)
Counter-ions that a name gives are not always drawn. Like-named read-outs stand apart in the source and are kept apart here.

Legend:
C57 mice [1] = assay: Forced swimming experiment, intraperitoneal administration to mice; format: in vivo; settings: Mus musculus, ip
Procedure: The forced-swimming test is currently the most widely used classic method to evaluate the antidepressant effects of compounds in rodents. […] The time in immobile state of experimental animal is observed and recorded, which can be used to evaluate the effect of antidepressant compounds.
1 h and 24 h after a single intraperitoneal administration of 10 mg/kg, forced swimming tests were respectively carried out to investigate the effects of different compounds on depression-like behaviors of C57 mice.
(§1) Experimental animals were 6-week aged C57 mice, male, and C57 mice were purchased from Shanghai SLAC Laboratory Animal Co., Ltd., with a body weight of 20.45±0.19 g. Before the experiment, they arrived at the Animal Feeding Center of Shanghai Institute of Materia Medica, Chinese Academy of Sciences (Animal Production License: SCXK9[Shanghai]2004-0002, usage license: SYXK[Shanghai]2003-0029), and adapted for 3 days or more in animal facilities. They were bred at 6 animals/cage. The breeding environment was room temperature 23±0.2° C., with 12/12 hours alternation of day and night. Before the behavioral test, the animals should be moved to the behavioral test operation room 2 hours in advance to adapt to the environment and reduce their tension.
Preparation of the test product: each test compound was accurately weighed and dissolved in 0.9% NaCl solution, mixed thoroughly, and prepared as a 1 mg/ml solution, set aside.
(§2) 24 hours before the administration, the mice were placed in a cylindrical tank to adapt to the aquatic environment for 10 min. On the day of the behavioral test, the animals were respectively administered intraperitoneally once at 1 h and 24 h before the behavioral test. The mice were placed individually into a cylindrical glass tank with a height of 30 cm and a diameter of 20 cm. The water depth in the tank was 15 cm, so that the animals could not escape from the glass tank and their feet and tails could not touch the bottom of the tank, the water temperature was 23° C.-25° C. A 6 minute video was taken after the mouse entered into water. Since most animals were very active in the first two minutes, the immobility time in the following 4 minute were calculated (criterion of immobility: the mouse stops struggling in the water, stays still and has small limbs movement to maintain balance or to keep a floating state).
(§3) The antidepressant effect of a compound was evaluated by the ability of the compound to reduce the immobility time of the animal in the forced swimming test as compared with the blank group. The shorter the immobility time of the animal to be tested, the higher the inhibition rate and the stronger the antidepressant activity. Inhibition rate1 h(%)=immobility time(blank, 1 h)−immobility time(administration, 1 h)/immobility time(blank, 1 h)×100% Inhibition rate24 h(%)=immobility time(blank, 24 h)−immobility time(administration, 24 h)/immobility time(blank, 24 h)×100%

C57 mice [2] = assay: Forced swimming experiment, oral administration to mice; format: in vivo; settings: inhibition of immobility time, C57 mice; for 1 h inhibition rate: forced swimming 1 h after single oral (intragastric) 20 mg/kg; for 24 h inhibition rate: forced swimming 24 h after single oral (intragastric) 20 mg/kg
Procedure: 1 h and 24 h after a single oral administration of 20 mg/kg, forced swimming experiments were then carried out to investigate the effects of different compounds on depression-like behavior in C57 mice.
as §1, with “male,” for “male, and”
Preparation of the test product: each test compound was accurately weighed and dissolved in 0.9% NaCl solution, mixed thoroughly, and prepared into 1 mg/ml and 2 mg/ml solutions respectively, and set aside.
as §2, with “intragastrically” for “intraperitoneally”
as §3, with “group.” for “group. The shorter the immobility time of the animal to be tested, the higher the inhibition rate and the stronger the antidepressant activity.”, “rate24h(%)=immobility” for “rate24 h(%)=immobility”

hERG potassium channel = target: T1, hERG potassium channel (Homo sapiens, UniProt Q12809); assay: hERG potassium channel inhibition experiment (automatic patch clamp, CHO-hERG cells); format: cell-based; settings: Qpatch, highest tested concentration 40 μM, read-out: IC50, blocking effect on the hERG potassium current
T1 construct: expressed in transfected cells
Procedure: Fully automatic patch clamps were used to test the blocking effect of the compounds of the present invention on the hERG potassium current on a stable cell line transfected with hERG potassium channels.
CHO-hERG cells were cultured in 175 cm^2 culture flask. When the cell grew to 60-80% confluence, the culture medium was removed. The cells were washed with 7 ml PBS (Phosphate Buffered Saline) once, and then 3 ml Detachin was added to digest.
After the digestion was completed, 7 ml culture medium was added to neutralize. The mixture was centrifuged, and after the supernatant was removed, 5 ml culture medium was added to resuspend to ensure the cell density was 2×10^6-5×10^6/ml.
Single-cell high-impedance sealing and whole-cell mode formation were all automatically completed by using the Qpatch instrument. After the recording mode was obtained, the cell was clamped at −80 millivolts. Before +40 millivolt depolarization stimulation for 5 seconds was given, −50 millivolt pre-voltage for 50 millisecond was first given, then repolarized to −50 millivolt for 5 seconds, and then returned to −80 millivolt. This voltage stimulus was applied every 15 seconds. After recording for 2 min, extracellular fluid was given, and recording was conducted for 5 min, and then the dosing process started. The compound concentration started from the lowest test concentration, and each test concentration was given for 2.5 min. […] At least 3 cells per concentration (n≥3) were tested.
20 mM compound mother liquor was diluted with extracellular fluid. 5 μL of 20 mM compound mother liquor was taken and added into 2495 μL extracellular fluid, so that it was diluted 500 times to 40 μM, and was then serially diluted 3 times in an extracellular fluid containing 0.2% DMSO to obtain the final concentration to be tested.
The highest tested concentration was 40 μM, and the concentrations were in order as follows: 40, 13.33, 4.44, 1.48, 0.49, 0.16 μM, totally 6 concentrations.
Experimental data were analyzed by XLFit software.

[3] = In vivo pharmacokinetic experiment in mice; settings: C57 mice
Procedure: Healthy male C57 mice were randomly divided into groups with 3 mice in each group, and the test compounds were administrated intragastrically or by intravenous injection. See Table 6 below for specific arrangements:
(§4) Each test compound was dissolved in physiological saline to prepare a certain concentration of solution for administration.
(§5) One day before administration, the mice were fasted and allowed to drink freely for 12-14 h. The mice were fed 4 h after administration.
(§6) 0.030 mL of blood was took from each animal each time through the orbit, and anticoagulated with EDTAK2. The collection time points were as follows: in PO group, 5 min, 15 min, 30 min, 1 h, 2 h, 4 h, 6 h, 8 h, 24 h after administration of test substance; in IV group, 2 min, 5 min, 15 min, 30 min, 1 h, 2 h, 4 h, 6 h, 8 h, 24 h after administration of test substance. After blood samples were collected, they were placed on ice and centrifuged to separate the plasma within 30 minutes (centrifugation conditions: 5000 rpm, 10 minutes, 4° C.). The sample were stored at −80° C. before analysis.

[4] = In vivo pharmacokinetic experiment in rats; settings: SD rats
Procedure: Healthy male SD rats were randomly divided into groups with 3 rats in each group, and the test compounds were administrated intragastrically or by intravenous injection. See Table 8 below for specific arrangements:
as §4
as §6, with “One day before administration, the rats were fasted and allowed to drink freely for 12-14 h. The rats were fed 4 h after administration. 0.030 mL” for “0.030 mL”, “anticoagulated with EDTAK2 anticoagulation. The collection” for “anticoagulated with EDTAK2. The collection”, “group, 5 min, 10 min, 15” for “group, 5 min, 15”

[5] = Distribution in mouse brain tissue; format: in vivo, C57 mice
Procedure: Healthy male C57 mice were randomly divided into groups with 3 mice in each group, and the test compound was administrated intragastrically. See Table 10 below for specific arrangements:
as §4, §5
After the animals were bled, the brain tissue was collected. After washing, 50% ice methanol was added for homogenate at 1:4 (m/v). The collection time points was 10 min, 15 min, 30 min, 1 h, 2 h after administration of the test substance; 30.0 μL of tissue sample was taken (the sample was taken out from the refrigerator at −80° C., vortexed for 30 seconds after natural melting at room temperature) and added into a 1.5 mL centrifuge tube. 300.0 μL internal standard solution (30 ng/mL […] acetonitrile solution) was added, the mixture was vortex for 60 seconds and then centrifuged for 3 minutes (centrifugal force was 12000 rpm); 75 μL of the supernatant was taken and transferred to 96-well injection plate loaded with equal volume of water, shaken and mixed well, and subjected to LC-MS/MS analysis, wherein injection volume was 10 μL.

[6] = 1 h, read-out: 1 h inhibition rate
[7] = 24 h, read-out: 24 h inhibition rate
[8] = male, mouse, iv, 5 mg/kg i.v., plasma
[9] = male, mouse, po, 20 mg/kg p.o., plasma
[10] = male, rat, iv, 10 mg/kg i.v., plasma
[11] = male, rat, po, 10 mg/kg p.o., plasma
[12] = male, rat, po, 100 mg/kg p.o., plasma

T1 sequence (Q12809 whole entry): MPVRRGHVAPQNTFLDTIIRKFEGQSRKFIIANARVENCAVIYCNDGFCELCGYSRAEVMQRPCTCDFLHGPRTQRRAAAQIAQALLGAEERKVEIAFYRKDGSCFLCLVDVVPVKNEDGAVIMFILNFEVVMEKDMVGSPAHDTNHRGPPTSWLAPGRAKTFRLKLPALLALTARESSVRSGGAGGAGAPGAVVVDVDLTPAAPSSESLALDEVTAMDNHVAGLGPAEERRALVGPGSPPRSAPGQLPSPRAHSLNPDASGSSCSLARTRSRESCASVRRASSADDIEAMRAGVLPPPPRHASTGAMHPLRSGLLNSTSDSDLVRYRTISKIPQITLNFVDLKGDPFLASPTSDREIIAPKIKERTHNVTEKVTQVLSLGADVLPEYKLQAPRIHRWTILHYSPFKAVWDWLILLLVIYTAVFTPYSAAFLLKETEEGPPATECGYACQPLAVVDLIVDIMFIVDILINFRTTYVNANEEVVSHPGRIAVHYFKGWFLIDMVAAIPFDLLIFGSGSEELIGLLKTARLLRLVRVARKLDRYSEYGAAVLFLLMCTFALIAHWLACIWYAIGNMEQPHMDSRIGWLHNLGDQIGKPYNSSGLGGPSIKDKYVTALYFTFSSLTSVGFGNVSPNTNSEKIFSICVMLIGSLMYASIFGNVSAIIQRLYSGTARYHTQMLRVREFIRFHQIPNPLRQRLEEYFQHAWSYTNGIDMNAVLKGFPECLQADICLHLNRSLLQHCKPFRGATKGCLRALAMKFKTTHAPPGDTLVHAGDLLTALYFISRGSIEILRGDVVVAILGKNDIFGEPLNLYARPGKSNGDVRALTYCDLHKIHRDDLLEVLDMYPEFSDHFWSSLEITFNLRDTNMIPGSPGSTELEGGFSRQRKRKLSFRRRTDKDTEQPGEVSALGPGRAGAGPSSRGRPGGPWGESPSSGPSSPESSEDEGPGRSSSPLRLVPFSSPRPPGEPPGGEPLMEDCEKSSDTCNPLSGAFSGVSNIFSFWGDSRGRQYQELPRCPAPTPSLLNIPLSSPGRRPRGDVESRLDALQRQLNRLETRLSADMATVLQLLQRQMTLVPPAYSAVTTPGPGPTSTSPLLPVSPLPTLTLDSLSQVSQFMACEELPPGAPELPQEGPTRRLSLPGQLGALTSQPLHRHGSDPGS

Cl.NC1(c2cccc(F)c2F)CCCC(O)C1=O (stereo not shown) [Compound 44, 2-amino-2-(2,3-difluorophenyl)-6-hydroxycyclohexane-1-one hydrochloride]
inhibition in vivo at 10 mg/kg (C57 mice [1]; [6]): 36.5 ± 2.9% | inhibition in vivo at 10 mg/kg (C57 mice [1]; [7]): 53.5 ± 0.2% | 1 h inhibition rate (C57 mice [2]): 27.3 ± 1.2% | 24 h inhibition rate (C57 mice [2]): 22.3 ± 2.3% | IC50 (hERG potassium channel): > 40 µM

NC1(c2ccccc2C(F)(F)F)CCCC(O)C1=O (stereo not shown) [Compound 45, 2-amino-6-hydroxy-2-(2-(trifluoromethyl)phenyl)cyclohexane-1-one hydrochloride]
inhibition in vivo at 10 mg/kg (C57 mice [1]; [6]): 33 ± 4.1% | inhibition in vivo at 10 mg/kg (C57 mice [1]; [7]): 44.5 ± 2.2% | IC50 (hERG potassium channel): > 40 µM

Cl.N[C@@]1(c2ccc(C(F)(F)F)cc2)CCC[C@@H](O)C1=O [Compound 50, (2R,6R)-2-amino-6-hydroxy-2-(4-(trifluoromethyl)phenyl)cyclohexane-1-one hydrochloride]
1 h inhibition rate (C57 mice [2]): 34.5 ± 3.1% | 24 h inhibition rate (C57 mice [2]): 35.6 ± 3.6% | AUC0-t ([3]; 5 mg/kg i.v., plasma): 3022 ngh/mL | AUC0-∞ ([3]; 5 mg/kg i.v., plasma): 3075 ngh/mL | F ([3]; 20 mg/kg p.o. vs 5 mg/kg i.v.): 112% | AUC0-t ([3]; 20 mg/kg p.o., plasma): 13548 ngh/mL | AUC0-∞ ([3]; 20 mg/kg p.o., plasma): 13624 ngh/mL | MRT [3, 8]: 1.29 h | half-life [3, 8]: 1.67 h | clearance ([3]; male, mouse, plasma, iv, 5 mg/kg i.v.): 27.2 mL/min/kg | Vd ([3]; male, mouse, plasma, iv, 5 mg/kg i.v., read-out: Vss): 2.1 L/kg | Cmax [3, 9]: 8100 ng/mL | MRT [3, 9]: 2.49 h | Tmax [3, 9]: 6.6 min | half-life [3, 9]: 4.16 h | AUC0-t ([4]; 10 mg/kg i.v., plasma): 10976 ngh/mL | AUC0-∞ ([4]; 10 mg/kg i.v., plasma): 11306 ngh/mL | F ([4]; 10 mg/kg p.o.): 82.5% | AUC0-t ([4]; 10 mg/kg p.o., plasma): 9060 ngh/mL | AUC0-∞ ([4]; 10 mg/kg p.o., plasma): 9533 ngh/mL | F ([4]; 100 mg/kg p.o.): 77.8% | AUC0-t ([4]; 100 mg/kg p.o., plasma): 85478 ngh/mL | AUC0-∞ ([4]; 100 mg/kg p.o., plasma): 87916 ngh/mL | MRT [4, 10]: 4.56 h | half-life [4, 10]: 4.84 h | clearance ([4]; male, rat, plasma, iv, 10 mg/kg i.v.): 14.8 mL/min/kg | Vd ([4]; male, rat, plasma, iv, 10 mg/kg i.v., read-out: Vss): 4.03 L/kg | Cmax [4, 11]: 3110 ng/mL | MRT [4, 11]: 6.29 h | Tmax [4, 11]: 0.31 h | half-life [4, 11]: 5.73 h | Cmax [4, 12]: 17300 ng/mL | MRT [4, 12]: 5.47 h | Tmax [4, 12]: 0.67 h | half-life [4, 12]: 4.86 h | AUC0-∞ ([5]; C57 mouse brain tissue, 20 mg/kg p.o.): 18509 ng·h/g | concentration at 10 min ([5]; male, brain, po, C57 mouse, 20 mg/kg p.o. (intragastrically), 10 min): 19400 ng/g | half-life ([5]; male, po, C57 mouse brain tissue, 20 mg/kg p.o.): 1.44 h

NC1(c2c(F)cc(F)cc2F)CCCC(O)C1=O (stereo not shown) [Compound 73, 2-amino-6-hydroxy-2-(2,4,6-trifluorophenyl)cyclohexane-1-one hydrochloride]
inhibition in vivo at 10 mg/kg (C57 mice [1]; [6]): 38.6 ± 6% | inhibition in vivo at 10 mg/kg (C57 mice [1]; [7]): 36.9 ± 3.9% | IC50 (hERG potassium channel): > 40 µM
